The values that follow come from PubChem BioAssay (NCI).

Each structure is given as a SMILES string.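 Cultured in 96-well plates, cells were exposed to test compound for 48 hours across five concentrations. Here, GI50 denotes the concentration required for 50% inhibition of growth. TGI is the concentration that stops growth completely.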 A value given as a limit tells only on which side of the number the result lay.

Holding throughout (experiment): inhibition of tumour cell growth, NCI panel, 48 h
Assay [1] deals with NCI-H460 lung.
The test system of assay [2] is SNB-19 CNS.
Assay [3] deals with SR leukemia.
In assay [4] the test system is SF-295 CNS.
Assay [5] has as its system MALME-3M melanoma.
The subject of assay [6] is EKVX NSCLC.
Assay [7] deals with RPMI-8226 leukemia.
Assay [8] concerns SK-MEL-5 melanoma.
The subject of assay [9] is SN12C renal.
Assay [10] deals with UO-31 renal.

On to `Cc1ccc2c(c1)nc(C(=O)c1ccco1)c(C(F)(F)F)[n+]2[O-]`, for which the GI50 in assay [1] is > 100 µM; in [2], > 100 µM; in assay [3], 64.4 µM; in assay [4] it was 64 µM; in [5] it was > 100 µM; in assay [6], 57.5 µM. Moreover, the GI50 in assay [7] was 64.6 µM; in assay [8], 1.6 µM; in [9] it was > 100 µM; in [10], 47.2 µM. The TGI in assay [1], in assay [2], in [3], in [4], in assay [5] and in assay [6] was > 100 µM each time. Moreover, the TGI in assay [7] was > 100 µM; in [8] it was 2.94 µM; in assay [9], > 100 µM; in [10], > 100 µM.

`COc1ccc(/C=C/C(=O)c2cc3c(N)c(C(=O)Nc4ccccc4Cl)sc3nc2C)cc1`: the GI50 was 2.2 µM in [1]; 3.8 µM in [2]; 3.77 µM in assay [3]; 3 µM in [4]; 0.736 µM in assay [5]; 2.25 µM in assay [6]. The GI50 was 5.72 µM in [7], 1.36 µM in [8], 3.78 µM in assay [9] and 1.17 µM in [10]. The TGI was > 50 µM in assay [1]; 23.1 µM in assay [2]; > 50 µM in assay [3]; > 50 µM in [4]; 9.21 µM in assay [5]; > 50 µM in assay [6]. Besides, the TGI in assay [7] is > 50 µM; in assay [8] it was 8.79 µM; in assay [9], > 50 µM; in assay [10], 3.94 µM.

With `O=C1CCC(Cc2ccc(Cl)cc2Cl)C(=O)N1` (centres undefined), the TGI in [1], in assay [2], in [3], in assay [4], in assay [5] and in assay [6] was > 100 µM in each case. For the same molecule, the TGI in [7], in [8], in assay [9] and in assay [10] was > 100 µM each time.

`O=C1C(Cl)C(c2cccc(O)c2)N1n1cnc2ccccc2c1=O` (centres undefined): the TGI in [1], in assay [2], in [3], in [4], in assay [5] and in [6] was > 100 µM in each case. Also, the TGI in assay [7], in assay [8], in assay [9] and in assay [10] was > 100 µM each time.

In the case of `CC1=C([Se]CC(OC(=O)CC[Se]c2ccccc2)C(=O)NCCCCCC(=O)OCc2ccccc2)C(=O)c2ccccc2C1=O` (centres undefined), the GI50 in assay [1] is 1.78 µM; in assay [2], 2.72 µM; in assay [3], 3.38 µM; in assay [4] it was 1.97 µM; in [5], 2.31 µM; in [6] it was 2.96 µM. Besides, the GI50 in assay [7] is 3.18 µM; in assay [8] it was 1.54 µM; in [9] it was 3.25 µM; in assay [10] it was 2.07 µM. Also, the TGI in assay [1] was 5.34 µM; in [2], 11 µM; in [3] it was 17.2 µM; in assay [4] it was 8.46 µM; in [5] it was 5.92 µM; in [6] it was 29.2 µM. Moreover, the TGI amounted to 12.9 µM in assay [7], 3.06 µM in [8], 14.3 µM in assay [9] and 7.41 µM in assay [10].

Take `CC(=O)OC[C@H]1O[C@@H](n2ccc(=O)[nH]c2=O)[C@H](OC(C)=O)[C@@H]1OC(C)=O`: the GI50 in assay [1], in assay [2], in assay [3], in assay [4], in assay [5] and in assay [6] was > 100 µM throughout. Besides, the GI50 in assay [7], in [8], in assay [9] and in [10] was > 100 µM in each case. Besides, the TGI in assay [1], in assay [2], in assay [3], in assay [4], in assay [5] and in assay [6] was > 100 µM in each case. The TGI in assay [7], in assay [8], in [9] and in assay [10] was > 100 µM in each case.

For `COc1cc2oc(=O)ccc2cc1C1OC(=O)C2OC21C` (centres undefined), the TGI in assay [1], in assay [2], in assay [3], in assay [4], in assay [5] and in assay [6] was > 100 µM throughout. The TGI in assay [7], in assay [8], in assay [9] and in assay [10] was > 100 µM throughout.

With `COc1ccccc1-[n+]1cc(-c2ccc(-c3ccccc3)cc2)n2c1CCCCC2`, the GI50 is 0.388 µM in [1]; 0.261 µM in assay [2]; 0.304 µM in [3]; 0.359 µM in assay [4]; 0.158 µM in [5]; 0.152 µM in [6]. In addition, the figures for the GI50 in assay [8], in [9] and in assay [10] were 0.166 µM, 0.288 µM and 2.19 µM, respectively. Further, the TGI stood at 11.5 µM in [1]; 12.1 µM in assay [2]; 24.1 µM in assay [3]; 4.03 µM in [4]; 0.869 µM in [5]; 14.4 µM in assay [6]. The TGI in [7] worked out at 1.53 µM; in assay [8], 0.475 µM; in assay [9], 10.5 µM; in assay [10] it was 11.1 µM.

Take `Cc1ccc(C(CN(C)C)C(=O)c2ccccc2)cc1` (centres undefined): the GI50 was 7.38 µM in assay [1]; 10.4 µM in assay [2]; 1.03 µM in assay [3]; 5.09 µM in assay [4]; 2.74 µM in assay [5]; 4.63 µM in assay [6]. Besides, the GI50 in assay [7] was 1.12 µM; in [8], 3.67 µM; in [9], 3.59 µM; in assay [10], 1.86 µM. Further, the TGI in assay [1] came out at 21.9 µM; in assay [2] it was 24.3 µM; in assay [3], 6.47 µM; in [4], 18.2 µM; in assay [5] it was 8.89 µM; in assay [6], 23.1 µM. Also, the TGI in assay [7] was 4.28 µM; in assay [8], 13.6 µM; in [9] it was 11.5 µM; in assay [10], 3.86 µM.

Consider `Cc1c(N=Nc2ccc([N+](=O)[O-])cc2)nc2scc(-c3ccccc3)n12`, for which the TGI in assay [1] was > 100 µM; in assay [2], > 100 µM; in [3], 56.4 µM; in [4] it was > 100 µM; in [5] it was > 100 µM; in assay [6] it was > 100 µM. The TGI in assay [7], in assay [8], in assay [9] and in [10] was > 100 µM each time.

As for `CCCCn1c2cc(OCc3cn(-c4ccc(Cl)cc4)nn3)ccc2c2ccnc(C)c21`, the GI50 in assay [1] is 7.2 µM; in assay [2] it was 14.1 µM; in [3], 5.2 µM; in assay [4], 5.03 µM; in [5], 5.98 µM; in [6], 6.93 µM. Also, the GI50 in assay [7] was 3.43 µM; in assay [8], 5.35 µM; in assay [9] it was 8.16 µM; in [10], 4.32 µM. In addition, the TGI in [1] is 18.6 µM; in assay [2] it was > 33.3 µM; in assay [3] it was 22.4 µM; in [4], 17.8 µM; in [5] it was 14.5 µM; in assay [6], > 33.3 µM. In addition, the TGI in assay [7] is 11.9 µM; in assay [8], 9.87 µM; in [9], > 33.3 µM; in assay [10] it was 10 µM.

In the case of `Cc1cccc(C(C)(C)C)c1NC(=O)C(=O)C(C(=O)/C=C\c1ccccc1)C1OC(=O)c2ccccc21` (centres undefined), the TGI in assay [1], in [2], in assay [3], in assay [4], in assay [5] and in assay [6] was > 100 µM each time. Further, the TGI in assay [7], in assay [8], in assay [9] and in [10] was > 100 µM each time.

In the case of `C=C1[C@@H](C)[C@H]2[C@H](Cc3ccccc3)NC(=O)[C@]23OC(=O)/C=C/[C@H](O)CCC[C@@H](C)C/C=C/[C@H]3[C@@H]1O`, the TGI is 57.8 µM in [1]; 64.1 µM in assay [2]; > 100 µM in assay [3]; 53.5 µM in assay [4]; > 89 µM in assay [5]; > 100 µM in [6]. Also, the TGI in [7] is 39.6 µM; in [8], 63.1 µM; in assay [9], > 100 µM; in assay [10] it was 4.12 µM.

Turning to `COc1cc(Nc2nc3cc(N)cc(N)c3nc2-c2ccccc2)cc(OC)c1`, the GI50 in assay [1] was 7.91 µM; in assay [2], 58.3 µM; in assay [3] it was 5.67 µM; in [4] it was 12.5 µM; in [5] it was 4.34 µM; in assay [6], 13.3 µM. Besides, the GI50 is 1.27 µM in [7], 10.5 µM in [8], 8.62 µM in assay [9] and 8.87 µM in [10]. Also, the TGI was 52.8 µM in [1]; > 100 µM in assay [2]; > 100 µM in assay [3]; 59.2 µM in assay [4]; 24.6 µM in [5]; 64.4 µM in assay [6]. Besides, the TGI in assay [7] is 10.4 µM; in assay [8] it was 30 µM; in assay [9], > 100 µM; in assay [10], 45 µM.

Take `C/C(O)=C(\N=O)C(=O)NCCc1ccccc1`: the TGI was > 58.4 µM in assay [1]; > 100 µM in [2]; > 100 µM in assay [3]; > 100 µM in assay [4]; > 100 µM in assay [5]; > 100 µM in [6]. Also, the TGI in assay [7], in [8], in assay [9] and in assay [10] was > 100 µM throughout.

Regarding `CCCN(CCCCC(NC(C)=O)C(=O)NCc1ccccc1)C(=O)NCCCl` (centres undefined), the TGI in assay [1], in assay [2], in assay [3], in assay [4], in assay [5] and in assay [6] was > 100 µM throughout. For the same molecule, the TGI in assay [7], in assay [8], in assay [9] and in assay [10] was > 100 µM in each case.

For the molecule `O=C(/C=C/c1ccc(OCC(=O)N2CCN(c3ccccc3)CC2)cc1)c1ccc(Cl)cc1`, the TGI in assay [1] was > 100 µM; in assay [2], 50.7 µM; in [3], > 100 µM; in [4], 54.7 µM; in assay [5] it was > 100 µM; in assay [6], > 83.9 µM. Besides, the TGI in assay [7] was > 100 µM; in [8] it was > 100 µM; in assay [9] it was > 100 µM; in [10], > 97.2 µM.

As for `O=C(O)c1ccc2c(c1)Cc1cc([N+](=O)[O-])ccc1-2`, the TGI in [1], in assay [2], in assay [3], in assay [4], in [5] and in [6] was > 100 µM each time. Also, the TGI in assay [7] is 77.4 µM; in assay [8] it was > 100 µM; in [9] it was > 100 µM; in assay [10] it was > 100 µM.

As for `CN(C)CCCn1c2c(c3cnccc3c1=O)C(=O)c1ccccc1-2`, the GI50 is 0.39 µM in assay [1]; 0.362 µM in assay [2]; 0.095 µM in assay [3]; 0.737 µM in assay [4]; 0.287 µM in assay [5]; 2.33 µM in assay [6]. The GI50 in [7] is 0.337 µM; in assay [8] it was 0.363 µM; in [9], 0.289 µM; in assay [10], 0.183 µM. Further, the TGI in assay [1] worked out at 1.75 µM; in assay [2], 3.96 µM; in assay [3], 0.793 µM; in [4] it was 5.59 µM; in [5] it was 1.05 µM; in [6], 16 µM. In addition, the TGI in [7] was 1.65 µM; in [8], 1.48 µM; in [9], 4.35 µM; in [10], 2.55 µM.
